# Assay results reported in patent US20260209185A1, “SYNTHESIS METHODS AND INTERMEDIATES FOR THE PRODUCTION OF REMIMBRUTINIB” (NOVARTIS AG, priority 2022, published 2026).
# Columns and labels:
# [1] = tested on: Salmonella typhimurium tester strain TA97a; assay: AMES testing (bacterial reverse mutation test, Salmonella/microsome assay), strain TA97a; assay type: cell-based; conditions: for increase in the number of revertants over the concurrent vehicle controls: strain TA97a; for mutagenicity (overall conclusion): strain TA97a in presence of metabolic activation, criterion 2-fold increase in revertants
# Source text: (§1) The Ames assay is a rapid, reliable and economical method for screening compounds for potential genetic activity at the nucleotide level. A large database has been accumulated with this assay, confirming its ability to detect genetically active compounds of most chemical classes with around 80 to 90% sensitivity and specificity.
# (§2) With the exception of strain TA102, these strains require biotin as well as histidine for growth. In strain TA102 the critical mutation in the histidine gene is located on a multicopy plasmid pAQ1. This strain is particularly sensitive to the activities of oxidative and cross-linking mutagens. The plasmid derivatives (TA98, TA100, TA97a and TA102) have increased sensitivity to certain mutagens as the pKM101 plasmid codes for an error-prone DNA repair system^(1,3).
# (§3) When exposed to a mutagen, some of the bacteria in the treated population, through chemical interaction with the compound, undergo genetic changes which cause them to revert to a non-histidine-requiring state and thus grow in the absence of exogenous histidine. Different tester strains are used because each is mutated by particular chemical classes of compound. A compound that is mutagenic in one strain need not be so in another^(1,3).
# (§4) Test item: INT 3, also known as 5-fluoro-2-methyl-3-(4,4,5,5-tetramethyl-1,3,2-dioxaborolan-2-yl)aniline. Vehicle: Di-methyl sulfoxide (DMSO) Purity/Content of drug: 97.95%. Molecular Structure:
# (§5) Strains of Salmonella typhimurium used^(4,5,6): TA98, TA100, TA1535, TA97a and TA102. Metabolic activation system^(2): Liver S-9 mix from male rats, Aroclor 1254-pretreated. Per plate, 0.5 mL of 5% S-9 mix was added. Controls: Control treatments comprised additions at the same volume per plate (0.1 mL) as the test item solutions. Negative controls comprised treatments with the chosen vehicle.
# (§6) Concentrations tested (Mutaqenicity Study): 50, 158, 501, 1582 and 5000 μg/plate (using all strains+/−S-9). […] Mutagenicity: Data from control treatments confirmed the correct strain and assay functioning, and the data were accepted as valid.
# (§7) Acceptance criteria: The assay was considered valid as all the following criteria were met: • 1. Vehicle control counts fell within the normal ranges; • 2. The positive control chemicals induced increases in revertant numbers by 5- to 30-fold for different strains when compared to the concurrent vehicle controls confirming discrimination between different strains, and an active S-9 preparation.
# (§8) Evaluation criteria: For valid data, the test item was considered mutagenic in this assay if a concentration related increase in revertant numbers of 2-fold (in strains TA98, TA100, TA1535 or TA97a) or 1.5-fold (in strain TA102) the concurrent vehicle control values was observed. […]
# [2] = tested on: Salmonella typhimurium TA98, TA100, TA1535, TA97a and TA102; assay: AMES testing (bacterial reverse mutation test, Salmonella/microsome assay), all strains; assay type: cell-based
# Source text: as §1, §2, §3, §4, §5, §6, §7, §8
structure (smiles),measurement,setting,value
"Cc1c(N)cc(F)cc1B1OC(C)(C)C(C)(C)O1 [INT 3, 5-fluoro-2-methyl-3-(4,4,5,5-tetramethyl-1,3,2-dioxaborolan-2-yl)aniline]",increase in the number of revertants over the concurrent vehicle controls,"[1]; Experiment 1, 5000 μg/plate, in the presence of metabolic activation (rat liver S-9)",2.3 fold
same,increase in the number of revertants over the concurrent vehicle controls,"[1]; Experiment 2, highest test concentration 5000 μg/plate, in presence of metabolic activation (rat liver S-9)",1.8 fold
same,mutagenicity (overall conclusion),[1],mutagenic potential
same,mutagenicity (overall conclusion),[1]; listed as INT3,weak mutagenic potential
same,"increase in revertant numbers over the concurrent vehicle controls, other strain treatments","[2]; any other strain treatments (TA98, TA100, TA1535, TA97a without S-9), 50-5000 μg/plate, +/- S-9",< 2 fold
same,cytotoxicity to tester strains,"[2]; preliminary cytotoxicity and mutagenicity test, any strain, presence and absence of metabolic activation, up to 5000 μg/plate",did not indicate any cytotoxicity
same,"increase in revertant numbers over the concurrent vehicle controls, strain TA102","[2]; strain TA102, 50-5000 μg/plate, +/- S-9",< 1.5 fold
same,precipitation of test item,"[2]; up to highest concentration (5000 μg/plate), presence and absence of metabolic activation, vehicle DMSO",did not precipitate
